In patent US20060094880A9, “Synthetic process for trans-aminocyclohexyl ether compounds” (priority 2003, published 2006):

Test system: sustained AF maintained during continuous vagal nerve stimulation
Test: Canine vagal-AF model: termination of sustained AF during continuous vagal nerve stimulation
Format: in vivo, Mongrel dogs
Protocol: St.-Georges et al., 1997). Dogs are ventilated mechanically with room air supplemented with oxygen via an endotracheal tube at 20 to 25 breaths/minute with a tidal volume obtained from a nomogram. […] Catheters are inserted into the femoral artery for blood pressure recording and blood gas measurement, and into both femoral veins for drug administration and venous sampling. […] Body temperature is maintained at 37-40° C. with a heating blanket. The heart is exposed via a medial thoracotomy and a pericardial cradle is created. […] Drug effects to terminate sustained AF maintained during continuous vagal nerve stimulation are assessed. […] The vagal stimulation voltage is adjusted under control conditions, and then readjusted after each treatment to maintain the same bradycardic effect. […] Diastolic threshold and ERP are determined in duplicate and averaged to give a single value. […] The interval from the stimulus artefact and the peak of the local electrogram is measured as an index of conduction velocity. […] The stimulus voltage-heart rate relationship for vagal nerve stimulation is determined under control conditions in most experiments. […] After the termination of AF, the diastolic threshold and ERP of the atrium and ventricle are determined. […] Group data are expressed as the mean ±SEM. […]

## O=C(NCC1CCCCN1)c1cc(OCC(F)(F)F)ccc1OCC(F)(F)F (stereo not shown) [Flecainide]
  Effectiveness as a control in the present study: comparable to that previously reported
